Experimental data from patent publication US5220042A, “1,4-benzoquinone derivatives and benzene derivatives, and process for preparing the same” (priority 1984, dated 1993).
Read-outs that look alike come from different tables or passages of the source.

Assays:
5-lipoxygenase = target: T1, 5-lipoxygenase (Cavia porcellus, UniProt A0A286X958); experiment: 5-Lipoxygenase inhibitory activity (conversion of 14C-arachidonic acid to 5-HETE) in guinea pig peritoneal exudate cells; assay type: cell-based, guinea pig (Hartley strain); conditions: read-out: inhibition ratio (%) of 5-lipoxygenase activity; for inhibition at 0.3 µM: concentration 3 × 10^-7 M; for inhibition at 1 µM: concentration 10^-6 M; for inhibition at 0.1 µM: concentration 10^-7 M
T1 construct: endogenous in cells; host or cells: guinea pig (Hartley strain) casein-elicited peritoneal exudate cells, intact cell suspension
T1 sequence (A0A286X958 1-674): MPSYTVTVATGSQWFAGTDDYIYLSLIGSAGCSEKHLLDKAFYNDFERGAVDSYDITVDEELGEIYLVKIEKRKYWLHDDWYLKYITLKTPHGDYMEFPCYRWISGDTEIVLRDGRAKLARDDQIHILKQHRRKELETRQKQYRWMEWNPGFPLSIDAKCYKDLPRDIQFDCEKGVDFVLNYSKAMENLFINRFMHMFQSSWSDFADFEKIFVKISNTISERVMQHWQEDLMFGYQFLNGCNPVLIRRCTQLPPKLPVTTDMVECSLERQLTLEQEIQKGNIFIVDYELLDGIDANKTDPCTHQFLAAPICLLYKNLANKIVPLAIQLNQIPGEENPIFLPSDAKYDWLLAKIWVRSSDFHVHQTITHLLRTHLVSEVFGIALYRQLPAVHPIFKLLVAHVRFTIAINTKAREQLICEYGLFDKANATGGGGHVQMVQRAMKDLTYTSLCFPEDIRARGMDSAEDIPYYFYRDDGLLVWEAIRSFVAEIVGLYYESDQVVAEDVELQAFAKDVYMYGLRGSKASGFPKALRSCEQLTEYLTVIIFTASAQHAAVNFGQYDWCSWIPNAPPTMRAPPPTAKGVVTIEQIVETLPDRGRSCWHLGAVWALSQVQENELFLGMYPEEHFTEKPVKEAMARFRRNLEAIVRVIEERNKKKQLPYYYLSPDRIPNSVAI
Method: 5-Lipoxygenase inhibitory activity of the present compounds was determined by a method according to procedures described in "J. Biol. Chem., Vol. 256, pages 4156-4159, (1981, Ibid. Vol. 258, pages 5754-5758 (1983).
(1) Preparation of Test Cells
A guinea pig (Hartley strain) (500-650 g body weight) was intraperitoneally administered with 2%-casein solution in 3/50 the volume of body weight. 14 Hours after the administration, the animal was sacrificed by bleeding and the peritoneal cavity was washed with Dulbecco's phosphate buffered saline (PBS) containing 3 U/ml of heparin and the exudate cells were harvested. The sample of cells was washed twice with Dulbecco's PBS (-), then the cells were suspended in Dulbecco's PBS (-), containing 1 mM of calcium chloride and 5.5 mM of glucose, so as to make a suspension having the concentration of 2.5×10^7 cells/ml.
To 0.2 ml of the above-mentioned cell suspension was added 10^-5 M of Indomethacine, and incubated at 30° C. for 2 minutes. Each of the appropriate concentrations of test compounds was added to the suspension respectively, further incubated for 2 minutes. Next, 10 μm of Ionophore A23187 (manufactured by Calbiochem-Behring, San Diego, Calif., U. S. A) was added to the suspension, further, 10 μm of ^14 C-arachidonic acid (manufactured by Amersham Japan, Ltd., Tokyo, Japan) was added and initiated the reaction. 3 Minutes after the initiation of the reaction, 0.1 ml of 0.2M-citric acid was added so as to terminate the reaction. 1.2 Milliliters of ethyl acetate was added to the reaction mixture and shaked for 5 minutes. The reaction mixture was centrifuged at 3,000 rpm for 5 minutes so as to separate the organic layer from the aqueous layer. 1 Milliliter of the organic layer (the upper layer) was dehydrated by passing through a mini-column packed with anhydrous sodium sulfate. The dehydrated organic layer was dried under nitrogen gas stream. The residue obtained was dissolved in ethyl acetate, and the total amount of the ethyl acetate solution was spotted onto thin layer chromochromatography (TCL) plate (Art. 11845 manufactured by E. Merck A. G.). The TCL was carried out with a mixed solvent of diethyl ether:petroleum:ether:acetic acid (50:50:1 volume/volume), then the radioactive metabolites on the plate were detected by using "Ultrafilm ^3 H" (a trademark for a X-ray film, manufactured by LKB Co.). Each fractions corresponding to the metabolites was scraped in to a scintillation vial, and 5 ml of "Scintilator ACS-II" (manufactured by Amersham Japan, Ltd.), was added then the radio-activity was determined by means of a liquid scintillation counter.

[1] = system: SRS-A release from lung fragments; experiment: Inhibition of SRS-A release from sensitized guinea pig lung fragments; assay type: cell-based, guinea pig (Hartley strain); conditions: Cavia porcellus
How it was run: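 Lung fragments from ovalbumin-sensitized male Hartley guinea pigs were preincubated 5 min at 37 °C in Tyrode's, given compound in DMSO for 5 min, then challenged with ovalbumin for 10 min. Released histamine was bioassayed by guinea pig ileum contraction at 30 s. SRS-A was read at 2 min with 10^-6 M pyrilamine against a crude SRS-A standard curve.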

[2] = Table 2, dose 3 μM, read-out: Inhibition ratio (%) SRS-A
[3] = Table 2, dose 30 μM, read-out: Inhibition ratio (%) SRS-A
[4] = Table 2B, 3 μM, read-out: Inhibitory activities on SRS-A (%)
[5] = Table 2B, 30 μM, read-out: Inhibitory activities on SRS-A (%)

inhibition at 0.3 µM (5-lipoxygenase) [%] | inhibition at 1 µM (5-lipoxygenase) [%] | inhibition at 0.1 µM (5-lipoxygenase) [%] | SMILES | inhibition at 3 µM [1, 2] [%] | inhibition at 30 µM [1, 3] [%] | inhibition at 3 µM [1, 4] [%] | inhibition at 30 µM [1, 5] [%]
55 | 74 | 38 | COC1=CC(=O)C(OC)=C(CCCCCC2=C(OC)C(=O)C=C(OC)C2=O)C1=O [Test Compound No. 9, 2,2'-Pentamethylenebis(3,6-dimethoxy-1,4-benzoquinone)] | 50.3 | > 94.8 | 50.3 | 94.2
72 | 91 | 43 | COC1=CC(=O)C(OC)=C(CCCCCCCCCC2=C(OC)C(=O)C=C(OC)C2=O)C1=O [Test Compound No. 13, 2,2'-Nonamethylenebis(3,6-dimethoxy-1,4-benzoquinone)] | 22.4 | 43.9 | 22.4 | 43.9
84 | 87 | 61 | COC1=CC(=O)C(OC)=C(CCCCCC#CCCCCCC2=C(OC)C(=O)C=C(OC)C2=O)C1=O [Test Compound No. 16, 2,2'-(6-Dodecynylene)bis(3,6-dimethoxy-1,4-benzoquinone)] | 23.4 | 43.9 | 23.4 | 43.9
